Assay results published in paper PMC4503722, “Novel Phenotypic Outcomes Identified for a Public Collection of Approved Drugs from a Publicly Accessible Panel of Assays” (PLoS ONE, 2015).

Key:
[1] = system: nuclear β-catenin in C2C12 cells; assay: cells; type: cell-based; details: assay number 5; concentration response
[2] = system: alkaline phosphatase (ALP) activity in C2C12 cells; type: cell-based; details: assay number 6; concentration response
NCI-H716 cells = assay: cells; type: cell-based, Human; details: assay number 12
STC-1 cell line = type: cell-based, mouse; details: assay number 13
HeLa cells = assay: cells; type: cell-based; details: for Hela CellCycMod PI 2N IC50/EC50: assay number 14; for Hela CellCycMod PI S Phase IC50/EC50: assay number 15; for Hela CellCycMod PI 4N IC50/EC50: assay number 16; for Hela CellCycMod PI MI IC50/EC50: assay number 17; for Hela CellCycMod PI Cell Number IC50/EC50: assay number 18
DLD-1 = assay: cells; type: cell-based; details: assay number 23; basal
SW480 = assay: cells; type: cell-based; details: assay number 24; basal
HCT116 = assay: cells; type: cell-based; details: assay number 25; basal
Colo320 = assay: cells; type: cell-based; details: assay number 27; basal
HT-29 = assay: cells; type: cell-based; details: assay number 28; basal
RKO = assay: cells; type: cell-based; details: assay number 29; basal
SNU-C1 = assay: cells; type: cell-based; details: assay number 30; basal
hp70S6K1 (RPS6KB1) = target: T1, hp70S6K1 (RPS6KB1) (Homo sapiens, UniProt P23443); assay: Cerep LANCE kinase assay hp70S6K1 (S1 assay 31); type: biochemical; details: assay number 31
T1 construct: purchased Cerep (LANCE kinase assay platform, contract assay)
T1 sequence (P23443 whole entry): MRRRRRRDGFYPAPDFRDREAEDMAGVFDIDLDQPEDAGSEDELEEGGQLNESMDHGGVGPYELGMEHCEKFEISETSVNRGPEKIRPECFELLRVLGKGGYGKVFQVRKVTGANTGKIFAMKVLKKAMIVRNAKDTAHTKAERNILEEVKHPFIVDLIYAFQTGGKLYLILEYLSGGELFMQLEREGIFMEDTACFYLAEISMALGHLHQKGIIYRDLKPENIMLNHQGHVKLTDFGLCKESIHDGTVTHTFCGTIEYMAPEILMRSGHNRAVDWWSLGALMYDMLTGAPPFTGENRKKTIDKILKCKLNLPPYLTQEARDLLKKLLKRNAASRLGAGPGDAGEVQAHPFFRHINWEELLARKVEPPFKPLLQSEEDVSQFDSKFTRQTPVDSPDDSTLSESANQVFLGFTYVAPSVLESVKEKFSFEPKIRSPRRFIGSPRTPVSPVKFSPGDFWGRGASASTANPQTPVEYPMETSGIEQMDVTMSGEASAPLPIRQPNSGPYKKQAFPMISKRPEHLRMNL

hKDR = target: T2, hKDR (Homo sapiens, UniProt P35968); assay: Cerep LANCE kinase assay hKDR (S1 assay 32); type: biochemical; details: assay number 32
T2 construct: purchased Cerep (LANCE kinase assay platform, contract assay)
T2 sequence (P35968 20-1356): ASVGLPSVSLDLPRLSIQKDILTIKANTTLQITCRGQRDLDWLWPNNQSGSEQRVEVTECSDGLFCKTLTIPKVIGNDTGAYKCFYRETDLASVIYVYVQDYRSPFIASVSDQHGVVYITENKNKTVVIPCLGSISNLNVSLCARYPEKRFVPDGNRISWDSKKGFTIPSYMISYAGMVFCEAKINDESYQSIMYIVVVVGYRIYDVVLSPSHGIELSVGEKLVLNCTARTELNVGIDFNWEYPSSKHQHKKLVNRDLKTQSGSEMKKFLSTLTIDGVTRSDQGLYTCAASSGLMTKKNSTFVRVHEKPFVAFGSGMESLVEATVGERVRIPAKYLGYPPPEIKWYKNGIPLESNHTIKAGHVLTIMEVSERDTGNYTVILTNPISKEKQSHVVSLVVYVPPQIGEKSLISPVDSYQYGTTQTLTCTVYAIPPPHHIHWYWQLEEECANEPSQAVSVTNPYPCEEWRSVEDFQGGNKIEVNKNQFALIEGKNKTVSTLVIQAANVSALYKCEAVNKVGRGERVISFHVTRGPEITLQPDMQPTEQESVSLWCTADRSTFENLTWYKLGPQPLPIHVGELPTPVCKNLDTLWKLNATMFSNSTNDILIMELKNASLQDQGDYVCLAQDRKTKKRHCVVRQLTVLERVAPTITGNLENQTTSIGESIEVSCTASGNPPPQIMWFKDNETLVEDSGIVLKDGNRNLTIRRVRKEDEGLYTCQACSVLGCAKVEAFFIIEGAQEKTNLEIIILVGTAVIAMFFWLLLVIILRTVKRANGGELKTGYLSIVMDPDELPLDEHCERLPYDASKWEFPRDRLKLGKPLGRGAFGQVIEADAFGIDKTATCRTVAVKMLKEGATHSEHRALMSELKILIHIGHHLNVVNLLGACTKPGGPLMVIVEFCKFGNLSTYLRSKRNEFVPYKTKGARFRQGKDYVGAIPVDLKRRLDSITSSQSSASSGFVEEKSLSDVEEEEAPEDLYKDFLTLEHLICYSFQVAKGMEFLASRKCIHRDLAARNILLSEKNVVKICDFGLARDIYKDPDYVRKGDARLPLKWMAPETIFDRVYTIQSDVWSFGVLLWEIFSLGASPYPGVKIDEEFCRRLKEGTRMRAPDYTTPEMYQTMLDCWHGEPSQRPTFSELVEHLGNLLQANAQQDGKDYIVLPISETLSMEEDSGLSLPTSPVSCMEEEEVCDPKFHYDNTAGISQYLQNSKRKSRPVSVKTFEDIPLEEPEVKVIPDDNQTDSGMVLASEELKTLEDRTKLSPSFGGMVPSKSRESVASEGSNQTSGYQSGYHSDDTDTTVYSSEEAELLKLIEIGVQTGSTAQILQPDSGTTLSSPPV

hJAK2 = target: T3, hJAK2 (Homo sapiens, UniProt O60674); assay: Cerep LANCE kinase assay hJAK2 (S1 assay 33); type: biochemical; details: assay number 33
T3 construct: purchased Cerep (LANCE kinase assay platform, contract assay)
T3 sequence (O60674 whole entry): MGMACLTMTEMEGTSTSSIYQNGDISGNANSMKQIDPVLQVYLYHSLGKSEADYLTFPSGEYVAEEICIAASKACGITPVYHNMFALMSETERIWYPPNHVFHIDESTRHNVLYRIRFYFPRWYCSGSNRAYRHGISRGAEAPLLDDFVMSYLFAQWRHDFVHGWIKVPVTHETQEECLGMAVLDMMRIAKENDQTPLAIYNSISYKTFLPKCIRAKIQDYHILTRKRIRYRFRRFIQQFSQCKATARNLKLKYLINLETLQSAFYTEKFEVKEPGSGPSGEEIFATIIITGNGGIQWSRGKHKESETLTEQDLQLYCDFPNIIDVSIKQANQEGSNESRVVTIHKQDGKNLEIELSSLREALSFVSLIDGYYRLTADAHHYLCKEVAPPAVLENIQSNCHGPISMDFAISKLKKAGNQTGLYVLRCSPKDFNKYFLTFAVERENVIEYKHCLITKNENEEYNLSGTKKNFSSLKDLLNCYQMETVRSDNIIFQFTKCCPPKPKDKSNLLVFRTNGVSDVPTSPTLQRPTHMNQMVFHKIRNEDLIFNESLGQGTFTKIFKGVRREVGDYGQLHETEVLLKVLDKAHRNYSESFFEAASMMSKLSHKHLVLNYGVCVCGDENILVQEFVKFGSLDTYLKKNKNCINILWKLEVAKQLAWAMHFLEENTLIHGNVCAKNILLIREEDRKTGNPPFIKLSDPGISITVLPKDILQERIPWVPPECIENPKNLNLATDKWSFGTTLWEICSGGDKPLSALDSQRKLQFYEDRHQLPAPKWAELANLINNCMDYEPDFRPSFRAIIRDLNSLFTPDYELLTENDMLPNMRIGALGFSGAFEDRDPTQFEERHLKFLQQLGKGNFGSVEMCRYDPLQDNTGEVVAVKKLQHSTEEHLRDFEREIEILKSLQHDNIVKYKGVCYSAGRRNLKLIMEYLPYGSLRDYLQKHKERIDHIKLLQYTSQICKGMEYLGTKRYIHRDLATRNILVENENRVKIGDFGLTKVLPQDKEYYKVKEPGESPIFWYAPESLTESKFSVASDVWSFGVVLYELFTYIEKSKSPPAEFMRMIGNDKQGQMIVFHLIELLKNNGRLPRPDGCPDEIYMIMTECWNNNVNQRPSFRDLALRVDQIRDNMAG

hGSK3b = target: T4, hGSK3b (Homo sapiens, UniProt P49841); assay: Cerep LANCE kinase assay hGSK3b (S1 assay 34); type: biochemical; details: assay number 34
T4 construct: purchased Cerep (LANCE kinase assay platform, contract assay)
T4 sequence (P49841 whole entry): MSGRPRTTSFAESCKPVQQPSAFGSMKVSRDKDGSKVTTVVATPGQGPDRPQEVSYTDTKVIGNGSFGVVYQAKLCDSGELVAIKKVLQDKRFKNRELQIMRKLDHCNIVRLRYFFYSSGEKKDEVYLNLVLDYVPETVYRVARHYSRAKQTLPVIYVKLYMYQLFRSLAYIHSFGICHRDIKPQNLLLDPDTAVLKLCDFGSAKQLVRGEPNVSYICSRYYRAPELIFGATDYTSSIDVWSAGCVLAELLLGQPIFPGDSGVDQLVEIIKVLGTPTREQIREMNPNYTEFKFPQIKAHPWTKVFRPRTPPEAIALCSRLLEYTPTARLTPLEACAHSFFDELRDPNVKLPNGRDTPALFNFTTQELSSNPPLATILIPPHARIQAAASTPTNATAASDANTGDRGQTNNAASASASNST

hFLT3 = target: T5, hFLT3 (Homo sapiens, UniProt P36888); assay: Cerep LANCE kinase assay hFLT3 (S1 assay 35); type: biochemical; details: assay number 35
T5 construct: purchased Cerep (LANCE kinase assay platform, contract assay)
T5 sequence (P36888 27-993): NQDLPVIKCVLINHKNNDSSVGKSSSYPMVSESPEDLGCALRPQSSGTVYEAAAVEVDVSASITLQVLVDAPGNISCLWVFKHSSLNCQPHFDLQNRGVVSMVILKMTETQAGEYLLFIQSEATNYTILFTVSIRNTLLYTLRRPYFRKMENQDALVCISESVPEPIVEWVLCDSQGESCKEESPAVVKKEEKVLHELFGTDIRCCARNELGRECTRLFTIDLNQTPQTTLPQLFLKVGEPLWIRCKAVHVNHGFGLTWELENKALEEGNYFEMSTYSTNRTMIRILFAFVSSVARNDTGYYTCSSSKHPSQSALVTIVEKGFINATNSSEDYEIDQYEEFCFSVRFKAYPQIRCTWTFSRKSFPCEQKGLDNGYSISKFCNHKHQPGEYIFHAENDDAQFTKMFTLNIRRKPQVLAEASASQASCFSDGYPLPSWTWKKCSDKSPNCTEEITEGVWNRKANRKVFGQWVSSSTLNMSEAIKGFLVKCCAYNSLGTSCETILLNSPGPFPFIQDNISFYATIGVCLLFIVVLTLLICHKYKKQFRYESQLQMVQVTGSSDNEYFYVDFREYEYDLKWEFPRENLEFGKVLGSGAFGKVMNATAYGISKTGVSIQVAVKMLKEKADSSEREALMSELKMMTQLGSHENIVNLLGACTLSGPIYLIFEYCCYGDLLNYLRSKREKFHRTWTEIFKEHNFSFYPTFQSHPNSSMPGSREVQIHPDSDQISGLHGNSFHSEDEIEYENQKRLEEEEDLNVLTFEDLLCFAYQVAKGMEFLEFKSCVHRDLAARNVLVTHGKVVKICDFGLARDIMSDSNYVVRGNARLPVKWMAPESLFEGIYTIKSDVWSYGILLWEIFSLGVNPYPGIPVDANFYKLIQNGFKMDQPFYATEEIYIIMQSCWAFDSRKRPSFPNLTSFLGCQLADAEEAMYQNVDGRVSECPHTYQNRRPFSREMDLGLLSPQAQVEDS

[3] = system: endothelial tube formation in co-cultures of ECFCs and ADSCs treated with VEGF; assay: cells; type: cell-based, human
[4] = system: ECFC/ADSC co-culture cell nuclei number

Structure (SMILES): Cc1cc2c(C(C)C)c(O)c(O)c(C=O)c2c(O)c1-c1c(C)cc2c(C(C)C)c(O)c(O)c(C=O)c2c1O [NCGC00016423-15]
- WntCondMedia_bCatenin C2C12 IC50/EC50 [1]: 3.4859 µM
- WntCondMedia_Alk Phos C2C12 IC50/EC50 [2]: > 20 µM
- hNCI-H716 GLP1 Secretion IC50/EC50 (NCI-H716 cells): 23.4306 µM
- mSTC-1 GLP1 Secretion IC50/EC50 (STC-1 cell line): > 40 µM
- Hela CellCycMod PI 2N IC50/EC50 (HeLa cells): > 10 µM
- Hela CellCycMod PI S Phase IC50/EC50 (HeLa cells): > 10 µM
- Hela CellCycMod PI 4N IC50/EC50 (HeLa cells): > 10 µM
- Hela CellCycMod PI MI IC50/EC50 (HeLa cells): > 10 µM
- Hela CellCycMod PI Cell Number IC50/EC50 (HeLa cells): 3.7083 µM
- Basal_Viability ATP DLD-1 IC50/EC50 (DLD-1): 0.8345 µM
- Basal_Viability ATP SW480 IC50/EC50 (SW480): 0.9563 µM
- Basal_Viability ATP HCT116 IC50/EC50 (HCT116): 0.7844 µM
- Basal_Viability ATP Colo 320 IC50/EC50 (Colo320): 1.3794 µM
- Basal_Viability ATP HT-29 IC50/EC50 (HT-29): 1.4237 µM
- Basal_Viability ATP RKO IC50/EC50 (RKO): 0.9156 µM
- Basal_Viability ATP SNU-C1 IC50/EC50 (SNU-C1): 0.3538 µM
- hp70S6K1 LANCE IC50/EC50 (hp70S6K1 (RPS6KB1)): > 20 µM
- hKDR LANCE IC50/EC50 (hKDR): > 20 µM
- hJAK2 LANCE IC50/EC50 (hJAK2): > 20 µM
- hGSK3b LANCE IC50/EC50 (hGSK3b): > 20 µM
- hFLT3 LANCE IC50/EC50 (hFLT3): > 20 µM

Structure (SMILES): C[C@@]12C(=O)OC(=O)[C@]1(C)C1CCC2O1 [NCGC00025212-08]
- VEGF_ADSC\ECFC Angio CD31 TubeArea IC50/EC50 [3]: 1.2254 µM
- WntCondMedia_bCatenin C2C12 IC50/EC50 [1]: > 20 µM
- WntCondMedia_Alk Phos C2C12 IC50/EC50 [2]: 1.4897 µM
- hNCI-H716 GLP1 Secretion IC50/EC50 (NCI-H716 cells): 6.6758 µM
- mSTC-1 GLP1 Secretion IC50/EC50 (STC-1 cell line): 13.7125 µM
- Hela CellCycMod PI 2N IC50/EC50 (HeLa cells): > 10 µM
- Hela CellCycMod PI S Phase IC50/EC50 (HeLa cells): > 10 µM
- Hela CellCycMod PI 4N IC50/EC50 (HeLa cells): > 10 µM
- Hela CellCycMod PI MI IC50/EC50 (HeLa cells): 8.4996 µM
- Hela CellCycMod PI Cell Number IC50/EC50 (HeLa cells): 1.0094 µM
- hp70S6K1 LANCE IC50/EC50 (hp70S6K1 (RPS6KB1)): > 20 µM
- hKDR LANCE IC50/EC50 (hKDR): > 20 µM
- hJAK2 LANCE IC50/EC50 (hJAK2): > 20 µM
- hGSK3b LANCE IC50/EC50 (hGSK3b): > 20 µM
- hFLT3 LANCE IC50/EC50 (hFLT3): > 20 µM
- VEGF_ADSC\ECFC Angio Hoechst NucArea IC50/EC50 [4]: 8.333 µM

Structure (SMILES): C#C[C@]1(O)CC[C@H]2[C@@H]3CCc4cc(OC5CCCC5)ccc4[C@H]3CC[C@@]21C [NCGC00166146-02]
- WntCondMedia_bCatenin C2C12 IC50/EC50 [1]: > 20 µM
- WntCondMedia_Alk Phos C2C12 IC50/EC50 [2]: > 20 µM
- hNCI-H716 GLP1 Secretion IC50/EC50 (NCI-H716 cells): 17.5795 µM
- mSTC-1 GLP1 Secretion IC50/EC50 (STC-1 cell line): > 40 µM
